# The supplement of paper PMC11061612
# How the values were obtained:
# Test in all cases: combination Emax (second highest fraction inhibited in the dose matrix, 72 h); higher = more inhibition; extreme values may be limits of the assay
# [1] = system: KARPAS-45 (T-Lymphoblastic Leukemia)
# In short: (§1)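 Cell lines in DMEM/F12 or RPMI with 10% FBS were plated in 1536-well plates, held 24 hours at 37°C, 5% CO2, then given two-drug dose matrices for 72 hours (DMSO typically 0.2%). Viability was read by CellTiter-Glo 2.0 luminescence and scaled as inhibition from 0 (vehicle wells) to 1 (blank wells). Combination Emax is the second-highest inhibition in the matrix; Bliss excess is observed combination effect minus expected EA + EB − EA·EB, EA and EB being single-agent effects.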
# [2] = system: COLO-678 (Colorectal Carcinoma)
# In short: as §1
# [3] = system: SR (Other Blood Carcinomas)
# In short: as §1
# [4] = system: MEL-JUSO (Melanoma)
# In short: as §1
# [5] = system: WM-115 (Melanoma)
# In short: as §1
# [6] = system: KYSE-180 (Esophageal Squamous Cell Carcinoma)
# In short: as §1
# [7] = system: TC-71 (Ewing's Sarcoma)
# In short: as §1
# [8] = system: BL-41 (Burkitt's Lymphoma)
# In short: as §1
# [9] = system: DND-41 (T-Lymphoblastic Leukemia)
# In short: as §1
# [10] = system: WIL2-NS (Non-Cancerous)
# In short: as §1
# [11] = system: KM12 (Colorectal Carcinoma)
# In short: as §1
# [12] = system: TE-6 (Esophageal Squamous Cell Carcinoma)
# In short: as §1
# [13] = system: SU-DHL-8 (B-Cell Non-Hodgkin's Lymphoma)
# In short: as §1
# [14] = system: L-540 (Hodgkin's Lymphoma)
# In short: as §1
# [15] = system: ES1 (Ewing's Sarcoma)
# In short: as §1
# [16] = system: LN-18 (Glioblastoma)
# In short: as §1
# [17] = system: EVSA-T (Breast Carcinoma)
# In short: as §1
# [18] = system: DiFi (Colorectal Carcinoma)
# In short: as §1
# [19] = system: MS751 (Cervical Carcinoma)
# In short: as §1
Structure (SMILES),combination Emax [1],combination Emax [2],combination Emax [3],combination Emax [4],combination Emax [5],combination Emax [6],combination Emax [7],combination Emax [8],combination Emax [9],combination Emax [10],combination Emax [11],combination Emax [12],combination Emax [13],combination Emax [14],combination Emax [15],combination Emax [16],combination Emax [17],combination Emax [18],combination Emax [19]
"NC1(C(=O)N[C@@H](CCO)c2ccc(Cl)cc2)CCN(c2ncnc3[nH]ccc23)CC1 [Capivasertib] + CC(=O)c1c(C)c2cnc(Nc3ccc(N4CCNCC4)cn3)nc2n(C2CCCC2)c1=O [Palbociclib] (first compound max 10 µM, 7x7, partner max 10 µM)",0.982,0.354,0.844,0.518,0.574,0.572,0.511,0.419,0.462,0.849,0.853,0.723,0.571,0.214,0.765,0.731,0.942,0.619,0.236
"C[C@@H](c1ccc2nccn2c1)n1nnc2ncc(-c3cnn(C)c3)nc21 [Savolitinib] + Cc1c2c(nn1C)CSCc1cc(n(C)n1)CSc1cc(c3ccccc3c1)OCCCc1c(C(=O)O)n(C)c3c-2c(Cl)ccc13 [AZD5991] (first compound max 1 µM, 7x7, partner max 1 µM)",0.882,0.161,0.772,0.183,0.185,0.278,0.412,1,0.172,0.0914,0.159,0.308,0.697,0.975,0.743,0.202,1,0.257,0.773
"NC1(C(=O)N[C@@H](CCO)c2ccc(Cl)cc2)CCN(c2ncnc3[nH]ccc23)CC1 [Capivasertib] + COc1nnc2ccc(N3CCC(c4ccc(OCCN5CCN(C)C(=O)[C@H]5C)cc4)CC3)nn12 [AZD5153] (first compound max 10 µM, 7x7, partner max 1 µM)",1,0.396,0.769,0.36,0.778,0.616,0.797,0.974,0.679,0.848,0.847,0.754,0.899,0.605,0.694,0.779,1,0.718,0.794
"CC(=O)c1c(C)c2cnc(Nc3ccc(N4CCNCC4)cn3)nc2n(C2CCCC2)c1=O [Palbociclib] + Cc1c2c(nn1C)CSCc1cc(n(C)n1)CSc1cc(c3ccccc3c1)OCCCc1c(C(=O)O)n(C)c3c-2c(Cl)ccc13 [AZD5991] (first compound max 10 µM, 7x7, partner max 1 µM)",0.99,0.351,0.993,0.305,0.293,0.638,0.586,0.998,0.51,0.737,0.752,0.425,0.683,0.981,0.917,0.477,0.967,0.548,0.833
"COc1nnc2ccc(N3CCC(c4ccc(OCCN5CCN(C)C(=O)[C@H]5C)cc4)CC3)nn12 [AZD5153] + C=CCn1c(=O)c2cnc(Nc3ccc(N4CCN(C)CC4)cc3)nc2n1-c1cccc(C(C)(C)O)n1 [AZD1775] (first compound max 1 µM, partner max 1 µM)",1,0.531,0.96,0.491,0.338,0.742,0.935,1,0.941,0.878,0.853,0.731,0.994,0.925,0.686,0.649,0.942,0.727,0.935
"CC(=O)c1c(C)c2cnc(Nc3ccc(N4CCNCC4)cn3)nc2n(C2CCCC2)c1=O [Palbociclib] + Cn1cnc2c(F)c(Nc3ccc(Br)cc3Cl)c(C(=O)NOCCO)cc21 [Selumetinib] (first compound max 10 µM, 7x7, partner max 10 µM)",0.964,0.525,0.873,0.425,0.415,0.203,0.396,0.433,0.489,0.74,0.768,0.425,0.32,0.25,0.616,0.359,0.287,0.751,0.236
